This note sets out measurements from patent US20250162989A1, “USP30 INHIBITORS AND USES THEREOF” (Vincere Biosciences, Inc., priority 2021, published 2025).

Sequence of recombinant USP30 (amino acids 57-517 of the human sequence) (Q70CQ3 57-517): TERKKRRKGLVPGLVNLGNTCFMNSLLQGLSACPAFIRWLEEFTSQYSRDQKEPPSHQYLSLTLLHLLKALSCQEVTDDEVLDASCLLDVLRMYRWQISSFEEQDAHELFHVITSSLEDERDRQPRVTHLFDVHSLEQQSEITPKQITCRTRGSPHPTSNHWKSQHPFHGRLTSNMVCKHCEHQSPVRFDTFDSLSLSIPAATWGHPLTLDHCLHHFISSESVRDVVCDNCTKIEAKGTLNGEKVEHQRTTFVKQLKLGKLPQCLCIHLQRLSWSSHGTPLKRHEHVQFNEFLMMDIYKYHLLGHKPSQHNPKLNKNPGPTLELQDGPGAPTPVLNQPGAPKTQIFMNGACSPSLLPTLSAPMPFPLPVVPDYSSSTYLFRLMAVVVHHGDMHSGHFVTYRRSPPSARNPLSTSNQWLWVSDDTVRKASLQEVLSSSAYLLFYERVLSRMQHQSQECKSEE

One assay addresses recombinant USP30 (amino acids 57-517 of the human sequence) (Homo sapiens (Human), UniProt Q70CQ3). The experiment in a line: In vitro USP30 biochemical assay (Ubiquitin-Rhodamine substrate). Conditions: 1.5 nM recombinant USP30, 25 nM Ubiquitin-Rhodamine, fluorescence. The method, then: In vitro biochemical assay to establish the potency of compounds for USP30 inhibition: a 384-well plate assay using a fluorophore tagged substrate of USP30 was used for in vitro screening of compounds. Each compound was tested at
10 different concentrations (0.5 to 10,000 nM) in duplicate wells. […] Data were analyzed using Graph Pad Prism software with a four-parameter (floating slope) fit to log concentration data to determine IC50s.
Take `COC[C@H](NC(=O)c1ccc(F)cc1)C(=O)Nc1ccc(S(=O)(=O)NC2COC2)cc1` [Compound I-34]: the IC50 is 1 to 10 µM.
As to `CC(C)(C)NS(=O)(=O)c1ccc(NC(=O)C2CC(C3CCCCC3)CN2C(=O)c2ccc(F)cc2)cc1` (centres unmarked) [Compound I-292], the IC50 is 0.05 to 1 µM.
The same measure, in the same setting: with `CC(C)[C@H](NC(=O)c1ccc(F)cc1)C(=O)Nc1ccc(S(=O)(=O)NC(C)(C)C)cc1` [Compound I-206] the figure was 0.05 to 1 µM; with `CC(C)(CN1CCOCC1)NS(=O)(=O)c1ccc(NC(=O)[C@H](CC2CC2)NC(=O)c2ccc(F)cc2)cc1` [Compound I-47], 0.05 to 1 µM; with `CC(C)(CO)NS(=O)(=O)c1ccc(NC(=O)[C@H](CO)NC(=O)c2ccc(F)cc2)cc1` [Compound I-35], 1 to 10 µM.
Same read-out and setting: with `O=C(N[C@@H](CC1CCNCC1)C(=O)Nc1ccc(S(=O)(=O)NC2CCOCC2)nc1)c1ccc(F)cc1` [Compound I-144] the figure was 0.05 to 1 µM; with `CC(C)(C)NS(=O)(=O)c1cccc2c(NC(=O)[C@H](Cc3ccccc3)NC(=O)N3CC4(COC4)C3)cccc12` [Compound I-197], 0.05 to 1 µM.
The same measure, in the same setting: for `CC(C)C[C@H](NC(=O)c1ccc(F)cc1)C(=O)Nc1ccc(S(=O)(=O)NC(C)(C)C(F)(F)F)cc1` [Compound I-221] the value was 0.05 to 1 µM.
Consider `CC(C)(C)NS(=O)(=O)c1ccc(NC[C@H](O)[C@H](CC2CCNCC2)NC(=O)c2ccc(F)cc2)cc1` [Compound I-235], for which the IC50 fell in the range of 1 to 10 µM.
The same measure, in the same setting: with `CC(C)(C)NS(=O)(=O)c1ccc(NC(=O)[C@@H]2CCCN2C(=O)c2ccc(F)cc2)cc1` [Compound I-50, (S)—N-(4-(N-tert-butylsulfamoyl)phenyl)-1-(4-fluorobenzoyl)pyrrolidine-2-carboxamide] the figure was 1 to 10 µM; with `CC(C)(C)NS(=O)(=O)c1ccc(NC(=O)[C@H](Cc2ccccc2)NC(=O)C2CCNCC2)cc1` [Compound I-192], 1 to 10 µM.
On the same count and under the same terms, for `COc1cc(NC(=O)[C@H](CC(C)C)NC(=O)c2ccc(F)cc2)cnc1S(=O)(=O)NC(C)(C)C` [Compound I-15] the value was 0.05 to 1 µM; for `CC(C)C[C@H](NC(=O)c1ccc(F)cc1)C(=O)Nc1ccc(S(=O)(=O)NC(C)(C)CO)nc1` [Compound I-17], 0.05 to 1 µM.
Same read-out and setting: for `CC(C)(CO)NS(=O)(=O)c1ccc(NC(=O)[C@H](CCO)NC(=O)c2ccc(F)cc2)cc1` [Compound I-29] the value was 1 to 10 µM; for `COc1cc(NC(=O)[C@@H]2C[C@@H](C3CCCCC3)CN2C(=O)c2ccc(F)cc2)ccc1S(=O)(=O)NC(C)(C)C` [Compound I-257], 0.05 to 1 µM.
Regarding `O=C(N[C@@H](CC1CCOCC1)C(=O)Nc1ccc(S(=O)(=O)NC2COC2)nc1)c1ccc(F)cc1` [Compound I-5], the IC50 lay in the range of 0.05 to 1 µM.
As for `COc1cc(NC(=O)[C@@H]2C[C@@H](c3ccccc3)CN2C(=O)c2ccc(F)cc2)ccc1S(=O)(=O)NC1COC1` [Compound I-265], the IC50 is 0.05 to 1 µM.
Consider `CC(C)(CN1CCOCC1)NS(=O)(=O)c1ccc(NC(=O)[C@H](CCO)NC(=O)c2ccc(F)cc2)cc1` [Compound I-30], for which the IC50 lay in the range of 1 to 10 µM.
Regarding `CC(C)(C)NS(=O)(=O)c1ccc(-c2nc([C@H](Cc3ccccc3)NC(=O)c3ccc(F)cc3)n[nH]2)cc1` (stereo in doubt) [Compound I-55, N-(1-(5-(4-(N-(tert-butyl)sulfamoyl)phenyl)-1H-1,2,4-triazol-3-yl)-2-phenylethyl)-4-fluorobenzamide], the IC50 lay within 1 to 10 µM.
On to `CC(C)C[C@H](NC(=O)c1ccc(F)cc1)C(=O)Nc1ccc(S(=O)(=O)NCc2ccnn2C)cc1` [Compound I-225], for which the IC50 fell in the range of 0.05 to 1 µM.
The same measure, in the same setting: for `CC(C)C[C@H](NC(=O)c1ccc(F)cc1)C(=O)Nc1ccc(S(=O)(=O)NC(C)(C)CF)cc1` [Compound I-230] the value was 0.05 to 1 µM; for `COCCC(C)(C)NS(=O)(=O)c1ccc(NC(=O)[C@@H](CC(C)C)NC(=O)c2ccc(F)cc2)cc1` [Compound I-19], 1 to 10 µM; for `CC(=O)O[C@@H]1C[C@@H](C(=O)Nc2ccc(S(=O)(=O)N[C@@H]3CCOC3)cc2)N(C(=O)c2ccc(F)cc2)C1` [Compound I-286], 1 to 10 µM.
On the same count and under the same terms, with `CN1CCC(C[C@H](NC(=O)N2CCOCC2)C(=O)Nc2ccc(S(=O)(=O)NC(C)(C)C)cc2)CC1` [Compound I-217] the figure was 1 to 10 µM.
The same measure, in the same setting: for `COCC[C@H](NC(=O)c1ccc(F)cc1)C(=O)Nc1ccc(S(=O)(=O)NC(C)(C)CO)cc1` [Compound I-26] the value was 0.05 to 1 µM.
Turning to `CN1CCC(C[C@H](NC(=O)c2ccc(F)cc2)C(=O)Nc2ccc(S(=O)(=O)NCc3ccnn3C)cc2)CC1` [Compound I-231], the IC50 lay in the range of 0.05 to 1 µM.
Consider `COc1cc(NC(=O)[C@H](CC2CCOCC2)NC(=O)c2ccc(F)cc2)ccc1S(=O)(=O)NC1CCOCC1` [Compound I-134], for which the IC50 lay in the range of 0.05 to 1 µM.
Same read-out and setting: for `CC(C)C[C@H](NC(=O)c1ccc(F)cn1)C(=O)Nc1ccc(S(=O)(=O)NC(C)(C)C(F)(F)F)cc1` [Compound I-204] the value was 0.05 to 1 µM.
On the same count and under the same terms, for `O=C(N[C@@H](Cc1ccccc1)C(=O)Nc1ccc(S(=O)(=O)NCc2cnc[nH]2)cc1)c1ccc(F)cc1` [Compound I-239] the value was 0.05 to 1 µM.
Same read-out and setting: for `CN1CCC(C[C@H](NC(=O)c2ccc(F)nc2)C(=O)Nc2ccc(S(=O)(=O)NC(C)(C)C)cc2)CC1` [Compound I-183] the value was 0.05 to 1 µM; for `COc1cc(NC(=O)[C@H](CC2CCN(C)CC2)NC(=O)c2ccc(F)cc2)ccc1S(=O)(=O)N[C@@H]1CCOC1` [Compound I-95], 0.05 to 1 µM.
Regarding `CC(C)(C)NS(=O)(=O)c1ccc(NC(=O)[C@H](CC2CCN(C(=O)OCc3ccccc3)CC2)NC(=O)N2CCOCC2)cc1` [Compound I-214], the half-maximal inhibitory concentration (IC50) fell in the range of 0.05 to 1 µM.
Turning to `CO[C@H]1C[C@@H](C(=O)Nc2ccc(S(=O)(=O)NC(C)(C)C)cc2)N(C(=O)c2ccc(F)cc2)C1` [Compound I-290], the IC50 was 1 to 10 µM.

Still in this assay, the particulars now being: […] recombinant USP30, 25 nM Ubiquitin-Rhodamine, fluorescence.
With `CO[C@@H]1C[C@@H](C(=O)Nc2ccc(S(=O)(=O)NC(C)(C)CO)cc2)N(C(=O)c2ccc(F)cc2)C1` [Compound I-268], the concentration for half-maximal inhibition (IC50) is greater than 10 µM.
Same read-out and setting: with `O=C(N[C@@H](Cc1ccccc1)C(=O)N[C@@H]1CCNC1)c1ccc(F)cc1` [Compound I-146] the figure was greater than 10 µM.
Same read-out and setting: for `CC(C)C[C@H](NC(=O)c1ccc(F)cc1)[C@@H](O)CNc1ccc(S(=O)(=O)NC(C)(C)C)cc1` [Compound I-220] the value was greater than 10 µM.
The same measure, in the same setting: with `N#CC1CC[C@@H](NC(=O)[C@H](Cc2ccccc2)NC(=O)c2ccc(F)cc2)C1` (some centres unmarked) [Compound I-246] the figure was greater than 10 µM; with `CC(C)(C)NS(=O)(=O)c1cccc2c(NC[C@H](O)[C@H](Cc3ccccc3)NC(=O)c3ccc(F)cc3)cccc12` [Compound I-211], greater than 10 µM; with `O=C(Nc1ccc(S(=O)(=O)NC2COC2)cc1)[C@@H]1C[C@@H](O)CN1C(=O)c1ccc(F)cc1` [Compound I-276], greater than 10 µM.
Take `CC(C)(C)NS(=O)(=O)N1CC[C@@H](NC(=O)[C@H](Cc2ccccc2)NC(=O)c2ccc(F)cc2)C1` [Compound I-162]: the IC50 was greater than 10 µM.
Same read-out and setting: for `CO[C@H]1C[C@@H](C(=O)Nc2ccc(S(=O)(=O)N[C@@H]3CCOC3)cc2)N(C(=O)c2ccc(F)cc2)C1` [Compound I-288] the value was greater than 10 µM; for `CC(C)(CN1CCOCC1)NS(=O)(=O)c1ccc(NC(=O)[C@H](CO)NC(=O)c2ccc(F)cc2)cc1` [Compound I-36, (S)-4-fluoro-N-(3-hydroxy-1-((4-(N-(2-methyl-1-morpholinopropan-2-yl)sulfamoyl)phenyl)amino)-1-oxopropan-2-yl)benzamide], greater than 10 µM.
The same measure, in the same setting: for `CC(C)(C)NS(=O)(=O)c1ccc(NC(=O)[C@H](Cc2ccccc2)NC(=O)c2ccc(F)cc2)cc1O` [Compound I-63] the value was less than 0.05 µM.
Still for that read-out and setting: with `CC(C)C[C@H](NC(=O)c1ccccc1)C(=O)NC1CN(C#N)C1` [Compound I-249] the figure was less than 0.05 µM; with `COc1cc(NC(=O)[C@@H]2C[C@@H](C3CCCCC3)CN2C(=O)c2ccc(F)cc2)cnc1S(=O)(=O)NC(C)(C)CO` [Compound I-256], greater than 10 µM; with `CC(C)(C)NS(=O)(=O)c1ccc(NC(=O)[C@H](Cc2ccccc2)NC(=O)c2cc[nH]c2)cc1` [Compound I-181], greater than 10 µM.
Take `CC(C)(CO)NS(=O)(=O)c1ccc(NC(=O)[C@@H]2C[C@@H](O)CN2C(=O)c2ccc(F)cc2)cc1` [Compound I-275]: the IC50 was greater than 10 µM.
Same read-out and setting: with `O=C(Nc1ccc(S(=O)(=O)N[C@@H]2CCOC2)cc1)[C@@H]1C[C@@H](c2ccccc2)CN1C(=O)c1ccc(F)cc1` [Compound I-92] the figure was 1 to 10 µM.
Regarding `CN1CCC(C[C@H](NC(=O)N2CCN(C)CC2)C(=O)Nc2ccc(S(=O)(=O)NC(C)(C)C)cc2)CC1` [Compound I-218], the IC50 is greater than 10 µM.
Still for that read-out and setting: for `CO[C@@H]1C[C@@H](C(=O)Nc2ccc(S(=O)(=O)NC3COC3)cc2)N(C(=O)c2ccc(F)cc2)C1` [Compound I-278] the value was greater than 10 µM; for `CC(C)C[C@H](NC(=O)c1ccc(F)cc1)C(=O)NC1CN(C#N)C1` [Compound I-251], less than 0.05 µM.
`CC(C)(C)NS(=O)(=O)c1ccc(NC(=O)C2CCCCN2C(=O)c2ccc(F)cc2)cc1` (centres unmarked) [Compound I-245]: the half-inhibitory concentration (IC50) is greater than 10 µM.
Still for that read-out and setting: for `CC(C)(C)NS(=O)(=O)c1ccc(NC(=O)[C@@H](CC2COC2)NC(=O)c2ccc(F)cc2)cc1` [Compound I-39, (R)—N-(1-((4-(N-(tert-butyl)sulfamoyl)phenyl)amino)-3-(oxetan-3-yl)-1-oxopropan-2-yl)-4-fluorobenzamide] the value was greater than 10 µM.
Same read-out and setting: for `O=C(N[C@@H](Cc1ccccc1)C(=O)N[C@@H]1CCN(S(=O)(=O)NC2CCOC2)C1)c1ccc(F)cc1` (some centres unmarked) [Compound I-170] the value was greater than 10 µM; for `N#CCN1CC[C@@H](NC(=O)[C@H](Cc2ccccc2)NC(=O)c2ccc(F)cc2)C1` [Compound I-154], greater than 10 µM; for `CC(C)(C)NS(=O)(=O)c1ccc(NC(=O)C(Cc2ccccc2)c2nnc(-c3ccc(F)cc3)[nH]2)cc1` (centres unmarked) [Compound I-90], greater than 10 µM.
